This passage reports GI50 and TGI results from PubChem BioAssay (NCI).

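Values below derive from 48-hour exposures of cells grown in 96-well plates, with endpoints linearly interpolated between the two concentrations bracketing the appropriate inhibition level. Here, GI50 denotes the concentration required for 50% inhibition of growth. TGI: concentration producing complete growth inhibition.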

Some test systems named below: SW-620 colon; NCI-H460 lung; NCI/ADR-RES ovarian; RXF 393 renal; SK-MEL-5 melanoma; HCT-15 colon; U251 CNS; OVCAR-5 ovarian; T-47D breast; PC-3 prostate.
What all share (assay): NCI-60 cell line screen, 48 h

In the case of `O=C(c1ccco1)c1c(C(F)(F)F)n([O-])c2ccccc2[n+]1=O`, the GI50 is 0.859 µM with SW-620 colon; 0.245 µM with NCI-H460 lung; 0.879 µM with NCI/ADR-RES ovarian; 1.43 µM with RXF 393 renal; 0.999 µM in the experiment with SK-MEL-5 melanoma; 0.785 µM in the experiment on HCT-15 colon. The GI50 in the experiment on U251 CNS was 0.719 µM; with OVCAR-5 ovarian, 3.68 µM; in the experiment with T-47D breast it was 1.97 µM; in the experiment on PC-3 prostate it was 0.338 µM. The TGI in the experiment on SW-620 colon worked out at 20.5 µM; in the experiment with NCI-H460 lung, 1.15 µM; in the experiment on NCI/ADR-RES ovarian, 12.7 µM; with RXF 393 renal, 9.45 µM; with SK-MEL-5 melanoma, 3.68 µM; with HCT-15 colon, 3.85 µM. Moreover, the TGI in the experiment with U251 CNS was found to be 18.2 µM; in the experiment with OVCAR-5 ovarian, 13.4 µM; in the experiment on T-47D breast it was 29.7 µM; in the experiment with PC-3 prostate, 3.61 µM.
As for `Cc1cc(Cc2cc(C)cc(C(C)(C)C)c2O)c(O)c(C(C)(C)C)c1`, the GI50 in the experiment on SW-620 colon was 4.47 µM; in the experiment on NCI-H460 lung, 3.64 µM; with NCI/ADR-RES ovarian it was 10.1 µM; with RXF 393 renal, 6.37 µM; in the experiment on SK-MEL-5 melanoma, 10.6 µM; in the experiment on HCT-15 colon it was 4.29 µM. Besides, the GI50 was 5.74 µM in the experiment with U251 CNS, 14.4 µM in the experiment on OVCAR-5 ovarian, 4.7 µM with T-47D breast and 5.15 µM in the experiment with PC-3 prostate. Besides, the TGI worked out at 16 µM in the experiment with SW-620 colon; 12 µM with NCI-H460 lung; 21.8 µM in the experiment with NCI/ADR-RES ovarian; 18.9 µM with RXF 393 renal; 22.4 µM with SK-MEL-5 melanoma; 14.5 µM with HCT-15 colon. The TGI was found to be 17.5 µM in the experiment with U251 CNS, 27.5 µM in the experiment with OVCAR-5 ovarian, 16.8 µM in the experiment on T-47D breast and 18.6 µM in the experiment with PC-3 prostate.
For the compound `C=C1C(=O)O[C@H]2[C@H]1CC/C(COC(=O)CSCC(=O)OC/C1=C/CC[C@@]3(C)O[C@H]3[C@H]3OC(=O)C(=C)[C@@H]3CC1)=C\CC[C@@]1(C)O[C@@H]21`, the GI50 in the experiment on SW-620 colon was 1.02 µM; in the experiment with NCI-H460 lung, 2.16 µM; in the experiment on NCI/ADR-RES ovarian it was 12 µM; with RXF 393 renal, 0.416 µM; with SK-MEL-5 melanoma, 1.73 µM; in the experiment with HCT-15 colon, 1.25 µM. For the same compound, the GI50 in the experiment with U251 CNS is 3.19 µM; in the experiment on OVCAR-5 ovarian, 1.85 µM; in the experiment on T-47D breast, 2.16 µM; with PC-3 prostate, 2.21 µM. In addition, the TGI with SW-620 colon was determined as 2.44 µM; with NCI-H460 lung, 4.91 µM; in the experiment with NCI/ADR-RES ovarian, 40.2 µM; in the experiment with RXF 393 renal, 1.52 µM; in the experiment on SK-MEL-5 melanoma, 3.77 µM; in the experiment with HCT-15 colon it was 2.69 µM. For the same compound, the TGI stood at 11.3 µM in the experiment with U251 CNS, 3.86 µM in the experiment on OVCAR-5 ovarian, 5.72 µM with T-47D breast and 6.92 µM with PC-3 prostate.
As to `C=CCC1(O)c2cccc(NCCO)c2C(=O)c2c(NCCO)cccc21`, the GI50 in the experiment on SW-620 colon, in the experiment with NCI-H460 lung, with NCI/ADR-RES ovarian, with RXF 393 renal, with SK-MEL-5 melanoma and with HCT-15 colon was above 100 µM each time. For the same compound, the GI50 in the experiment on U251 CNS, in the experiment on OVCAR-5 ovarian, in the experiment with T-47D breast and with PC-3 prostate was above 100 µM each time. The TGI in the experiment on SW-620 colon, in the experiment on NCI-H460 lung, in the experiment on NCI/ADR-RES ovarian, in the experiment on RXF 393 renal, in the experiment with SK-MEL-5 melanoma and with HCT-15 colon was above 100 µM each time. The TGI in the experiment with U251 CNS, in the experiment with OVCAR-5 ovarian, in the experiment with T-47D breast and in the experiment with PC-3 prostate was above 100 µM throughout.
With `COc1ccccc1/C=N\N=C(N/N=C/c1ccccc1OC)N/N=C/c1ccccc1OC`, the GI50 in the experiment with SW-620 colon is 3.38 µM; in the experiment with NCI-H460 lung, 2.74 µM; with NCI/ADR-RES ovarian, 3.12 µM; in the experiment on RXF 393 renal, 5.01 µM; with SK-MEL-5 melanoma it was 1.77 µM; with HCT-15 colon it was 3.27 µM. Also, the GI50 with U251 CNS is 2.67 µM; in the experiment with OVCAR-5 ovarian, 4 µM; in the experiment with T-47D breast, 3.27 µM; in the experiment on PC-3 prostate, 2.77 µM. The TGI in the experiment with SW-620 colon was 13.6 µM; in the experiment with NCI-H460 lung, 10.8 µM; in the experiment with NCI/ADR-RES ovarian it was 10.5 µM; in the experiment with RXF 393 renal, above 100 µM; with SK-MEL-5 melanoma, 3.23 µM; in the experiment on HCT-15 colon, 18.3 µM. The TGI in the experiment on U251 CNS is 15 µM; in the experiment on OVCAR-5 ovarian, above 100 µM; in the experiment with T-47D breast, 9.69 µM; in the experiment with PC-3 prostate, above 100 µM.
With `CC(C)NC(=O)OCc1c(COC(=O)NC(C)C)c(-c2ccc(Cl)cc2)n2c1CCC2`, the GI50 is 3.35 µM with SW-620 colon; 0.751 µM in the experiment with NCI-H460 lung; 3.05 µM in the experiment on NCI/ADR-RES ovarian; 1.85 µM in the experiment with RXF 393 renal; 5.21 µM in the experiment with SK-MEL-5 melanoma; 4.07 µM in the experiment on HCT-15 colon. In addition, the GI50 in the experiment on U251 CNS is 2.88 µM; with OVCAR-5 ovarian, 3.3 µM; with T-47D breast, 3.9 µM; in the experiment with PC-3 prostate, 3.32 µM. The TGI in the experiment with SW-620 colon was 19.2 µM; in the experiment on NCI-H460 lung it was 14.4 µM; in the experiment on NCI/ADR-RES ovarian, 16.8 µM; with RXF 393 renal, 4.32 µM; with SK-MEL-5 melanoma, 18.3 µM; in the experiment with HCT-15 colon it was above 50.1 µM. Moreover, the TGI with U251 CNS was 35.2 µM; in the experiment on OVCAR-5 ovarian, 13.5 µM; in the experiment on T-47D breast, 20.9 µM; in the experiment on PC-3 prostate, 25.2 µM.
For `COc1cccc(/C=C/c2cnc3ccccc3n2)c1OC`, the TGI with SW-620 colon is above 100 µM; in the experiment on NCI-H460 lung, above 100 µM; with NCI/ADR-RES ovarian, 60.1 µM; with RXF 393 renal, 96.1 µM; in the experiment on SK-MEL-5 melanoma, 58.3 µM; in the experiment on HCT-15 colon, 92.7 µM. Besides, the TGI in the experiment on U251 CNS is above 100 µM; in the experiment on OVCAR-5 ovarian it was above 100 µM; in the experiment with T-47D breast it was 82.9 µM; with PC-3 prostate, above 100 µM.
Regarding `COC(=O)C1(F)C(=O)NC(=O)NC1O` (stereo not given), the TGI in the experiment on SW-620 colon, in the experiment on NCI-H460 lung, with NCI/ADR-RES ovarian, in the experiment with RXF 393 renal, in the experiment on SK-MEL-5 melanoma and in the experiment with HCT-15 colon was above 100 µM throughout. For the same compound, the TGI in the experiment with U251 CNS, in the experiment with OVCAR-5 ovarian, in the experiment on T-47D breast and in the experiment with PC-3 prostate was above 100 µM throughout.
Regarding `COc1ccc(/C=C/C(=O)Oc2cc(O)cc(O)c2)cc1`, the TGI is above 100 µM in the experiment on SW-620 colon; above 100 µM with NCI-H460 lung; above 100 µM with NCI/ADR-RES ovarian; above 100 µM in the experiment with RXF 393 renal; above 100 µM in the experiment on SK-MEL-5 melanoma; 65.9 µM with HCT-15 colon. The TGI in the experiment on U251 CNS, with OVCAR-5 ovarian, in the experiment with T-47D breast and in the experiment with PC-3 prostate was above 100 µM throughout.
